{
  "source": "patent US20110086762A1",
  "about": "“4'4'-Dioxaspiro-Spirocyclically Substituted Tetramates” (Bayer CropScience AG, priority 2008, published 2011)",
  "key": {"Tetranychus urticae [1]": {"system": "Tetranychus urticae", "assay": "Tetranychus test, OP-resistant (bean plants)", "format": "in vivo, greenhouse red spider mite (Tetranychus urticae)", "conditions": "TETRUR, active compound conc. 4 ppm", "experimental": "(§1) Solvent: 7 parts by weight of dimethylformamide Emulsifier: 2 parts by weight of alkylaryl polyglycol ether To produce a suitable preparation of active compound, 1 part by weight of active compound is mixed with the stated amounts of solvent and emulsifier, and the concentrate is diluted with emulsifier-containing water to the desired concentration. If the addition of ammonium salts, penetrant or ammonium salts and penetrant is required, these are pipetted in at a concentration of 1000 ppm after dilution of the respective finished solution of the preparation. Bean plants (Phaseolus vulgaris) which are heavily infested by all stages of the greenhouse red spider mite (Tetranychus urticae) are treated by spraying with the active compound preparation of the desired concentration. After the desired period of time, the effect in % is determined. Here, 100% means that all of the spider mites have been killed; 0% means that none of the spider mites have been killed."}, "Myzus persicae": {"system": "Myzus persicae", "assay": "Myzus persicae test MYZUPE (bell pepper plants)", "format": "in vivo, green peach aphid (Myzus persicae)", "experimental": "as §1, with “Bell pepper” for “Bean”, “(Capsicum annuum)” for “(Phaseolus vulgaris)”, “by” for “by all stages of”, “green peach aphid (Myzus persicae)” for “greenhouse red spider mite (Tetranychus urticae)”, “kill” for “effect”, “animals” for “spider mites”"}, "Aphis gossypii [2]": {"system": "Aphis gossypii", "assay": "Aphis gossypii test, APHIGO spray treatment (cotton leaves)", "format": "in vivo, cotton aphid (Aphis gossypii)", "conditions": "active compound conc. 0.8 ppm", "experimental": "Solvent: 7 parts by weight of dimethylformamide Emulsifier: 2 parts by weight of alkylaryl polyglycol ether To produce a suitable preparation of active compound, 1 part by weight of active compound is mixed with the stated amounts of solvent and emulsifier, and the concentrate is diluted with emulsifier-containing water to the desired concentration. If the addition of ammonium salts, penetrant or ammonium salts and penetrant is required, these are pipetted in at a concentration of 1000 ppm after dilution of the respective finished solution of the preparation. Cotton leaves (Gossypium hirsutum) which are heavily infested by the cotton aphid (Aphis gossypii) are sprayed with an active compound preparation of the desired concentration. After the desired period of time, the kill in % is determined. Here, 100% means that all of the aphids have been killed; 0% means that none of the aphids have been killed."}, "[3]": {"assay": "Penetration of active compounds through enzymatically isolated cuticles of apple leaves", "format": "in vitro ADME, apple trees of the Golden Delicious variety", "conditions": "apple leaf cuticles, 20° C., 60% rh, average of 8 to 10 measurements", "description": "Boosting of penetration into the plant by ammonium salts or phosphonium salts, and synergistic boosting of penetration into the plant by ammonium/phosphonium salts in combination with penetration promoters This test measured the penetration of active compounds through enzymatically isolated cuticles of apple leaves. The leaves used were cut in the fully developed state from apple trees of the Golden Delicious variety. The cuticles were isolated as follows: • first of all, leaf discs labelled on the underside with dye and formed by punching were filled by means of vacuum infiltration with a pectinase solution (0.2% to 2% strength) buffered to a pH of between 3 and 4, • sodium azide was then added and • the leaf discs thus treated were left to stand until the original leaf structure broke down and the non-cellular cuticle underwent detachment. After that, only those cuticles from the top leaf sides that were free from stomata and hairs were used further. They were washed a number of times in alternation with water and with a buffer solution, pH 7. […] Penetration was determined by applying 10 μl of the spray liquor of the composition below to the outer side of each of the cuticles. […] At regular intervals, samples were taken using an autosampler, and the amount of active compound was determined using HPLC. […]"}, "Aphis gossypii [4]": {"system": "Aphis gossypii", "assay": "Example C-2: plot trial on cotton 'Fibermax' against Aphis gossypii", "format": "in vivo", "conditions": "105 g a.i./ha, standard (SC 050)", "experimental": "In plots of a size of 10 m^2, cotton plants of the cultivar “Fibermax” are treated in three replications against Aphis gossypii using a pressure-operated knapsack sprayer (2.5 bar). Here, the active compound A.5 is applied as SC050 and SL050 at the stated application rate in a tank mix of 1 g/l of ammonium sulphate and 1 g/l of a.i. rapeseed oil methyl ester EW 500 in comparison to the standard imidacloprid (SC 050) using an application rate of 300 l of water/ha. Evaluation is carried out 3, 6, 9, 13 and 17 days after the application by counting the number of live animals on the leaves. Subsequently, the efficacy in percent is calculated according to Henderson and Tilton."}, "Tetranychus urticae [5]": {"system": "Tetranychus urticae", "assay": "Example C-3: plot trial on cotton 'Fibermax 977' against Tetranychus urticae", "format": "in vivo", "conditions": "9 g a.i./ha, standard (EC 018), two applications 8 days apart", "experimental": "In plots of a size of 15 m^2, cotton plants of the cultivar “Fibermax 977” are treated in three replications against Tetranychus urticae using a pressure-operated knapsack sprayer (4 bar). Here, the active compound A.5 is applied as SC050 and SL050 at the stated application rate in a tank mix of 1 g/l of ammonium sulphate and 1 g/l of a.i. rapeseed oil methyl ester EW 500 and the standard abamectin (EC 018) using an application rate of in each case 300 l of water/ha. Two applications are carried out at an interval of 8 days. Evaluation is carried out 3, 7, 11 and 15 days after the first application by scoring the kill of the spider mites on the leaves."}},
  "data": [
    {"molecule": "Cc1cc(C)c(C2=C(O)C3(CCC4(CC3)OCCO4)NC2=O)c(C)c1", "note": "[A.2]", "values": [
      {"measurement": "% effect after 7 d", "setting": "Tetranychus urticae [1]", "result": 70, "unit": "%"},
      {"measurement": "% effect after 7 d", "setting": "Myzus persicae; active compound conc. 0.8 ppm", "result": 90, "unit": "%"}
    ]},
    {"molecule": "Cc1cc(C)c(C2=C(O)C3(CCC4(CC3)OCCO4)NC2=O)c(C)c1", "note": "[A.3]", "values": [
      {"measurement": "% effect after 7 d", "setting": "Aphis gossypii [2]", "result": 75, "unit": "%"},
      {"measurement": "% effect after 7 d", "setting": "Myzus persicae; active compound conc. 0.8 ppm", "result": 75, "unit": "%"}
    ]},
    {"molecule": "Cc1cc(Cl)cc(C)c1C1=C(O)C2(CCC3(CC2)OCCO3)NC1=O", "note": "[A.4]", "values": [
      {"measurement": "% effect after 7 d", "setting": "Myzus persicae; active compound conc. 10 ppm", "result": 100, "unit": "%"}
    ]},
    {"molecule": "Cc1cc(Cl)cc(C)c1C1=C(O)C2(CCC3(CC2)OCCO3)NC1=O", "note": "[A.6]", "values": [
      {"measurement": "% effect after 7 d", "setting": "Myzus persicae; active compound conc. 10 ppm", "result": 95, "unit": "%"}
    ]},
    {"molecule": "Cc1cc(Cl)cc(C)c1C1C(=O)NC2(CCC3(CC2)OCCO3)C1=O", "note": "(stereo not shown) [Ex. I-1-a-4, 8,8′-ethylenedioxy-3-[(2,6-dimethyl-4-chloro)-phenyl]-1-azaspiro[4,5]-decane-2,4-dione]", "values": [
      {"measurement": "% effect after 7 d", "setting": "Myzus persicae; active compound conc. 10 ppm", "result": 75, "unit": "%"}
    ]},
    {"molecule": "Cc1cc(C)c(C2=C(O)C3(CCC4(CC3)OCCO4)NC2=O)c(C)c1.[K+]", "note": "[Example A.1]", "values": [
      {"measurement": "% effect after 7 d", "setting": "Myzus persicae; active compound conc. 0.8 ppm", "result": 75, "unit": "%"}
    ]},
    {"molecule": "Cc1cc(Cl)cc(C)c1C1=C(O)C2(CCC3(CC2)OCCO3)NC1=O", "note": "[Example A.5]", "values": [
      {"measurement": "Penetration after 24 h", "setting": "[3]; SC 050 + RME (1 g/l) + AS (1 g/l)", "result": 3, "unit": "%"},
      {"measurement": "Penetration after 24 h", "setting": "[3]; SL 050 + RME (1 g/l) + AS (1 g/l)", "result": 7, "unit": "%"}
    ]},
    {"molecule": "O=[N+]([O-])NC1=NCCN1Cc1ccc(Cl)nc1", "note": "[imidacloprid]", "values": [
      {"measurement": "Efficacy (% H + T) Aphis gossypii 3 d", "setting": "Aphis gossypii [4]; 3 d", "result": 78.1, "unit": "%"},
      {"measurement": "Efficacy (% H + T) Aphis gossypii 6 d", "setting": "Aphis gossypii [4]; 6 d", "result": 84.1, "unit": "%"},
      {"measurement": "Efficacy (% H + T) Aphis gossypii 9 d", "setting": "Aphis gossypii [4]; 9 d", "result": 83.7, "unit": "%"},
      {"measurement": "Efficacy (% H + T) Aphis gossypii 13 d", "setting": "Aphis gossypii [4]; 13 d", "result": 82.0, "unit": "%"},
      {"measurement": "Efficacy (% H + T) Aphis gossypii 17 d", "setting": "Aphis gossypii [4]; 17 d", "result": 64.7, "unit": "%"}
    ]},
    {"molecule": "abamectin", "values": [
      {"measurement": "Effect Abbott (%) Tetranychus urticae 3 d", "setting": "Tetranychus urticae [5]; 3 d after first application", "result": 49.3, "unit": "%"},
      {"measurement": "Effect Abbott (%) Tetranychus urticae 7 d", "setting": "Tetranychus urticae [5]; 7 d after first application", "result": 27.2, "unit": "%"},
      {"measurement": "Effect Abbott (%) Tetranychus urticae 11 d", "setting": "Tetranychus urticae [5]; 11 d after first application", "result": 5.8, "unit": "%"},
      {"measurement": "Effect Abbott (%) Tetranychus urticae 15 d", "setting": "Tetranychus urticae [5]; 15 d after first application", "result": 40.7, "unit": "%"}
    ]}
  ]
}
